Structures are written as SMILES.

For the first assay, the target named is T1, human DP1 receptor (Homo sapiens, UniProt Q13258).
T1 construct: tissue Biological Specialty Corporation; host or cells: human platelet membranes
T1 sequence (Q13258 1-359): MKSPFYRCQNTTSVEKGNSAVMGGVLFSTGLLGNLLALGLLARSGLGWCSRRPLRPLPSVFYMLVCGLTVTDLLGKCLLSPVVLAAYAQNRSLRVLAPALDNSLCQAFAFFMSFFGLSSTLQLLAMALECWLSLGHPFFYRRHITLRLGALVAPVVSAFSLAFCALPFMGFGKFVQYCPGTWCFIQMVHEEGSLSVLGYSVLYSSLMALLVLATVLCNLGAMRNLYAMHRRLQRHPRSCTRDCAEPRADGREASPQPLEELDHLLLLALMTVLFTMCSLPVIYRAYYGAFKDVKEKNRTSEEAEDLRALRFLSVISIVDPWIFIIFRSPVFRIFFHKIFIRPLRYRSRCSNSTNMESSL
Nature of the assay: DP1 radioligand binding assay ([3H]BWA868C, platelet membranes).
Conditions: not given
The method, then:
The ability of a compound to bind to the human DPI receptor was evaluated via a radioligand membrane binding assay using the DP1 selective synthetic ligand [^311]BWA868C. Packed human platelets (Biological Specialty Corporation), were resuspended in 6 volumes of Hepes/HBSS buffer (10 mM Hepes, 1 mM DTT in Hanks Balanced Salt Solution (HBSS)), lysed and centrifuged at 75,000×g to pellet the membranes. Membranes were resuspended in Hepes/HBSS buffer to approximately 12 mg protein/ml. Membranes (20 μg protein/well) are incubated in 96-well plates with 2 nM [^3H]BWA868C and test compound in Assay Buffer (50 mM Hepes, 10 mM MnCl2, 1 mM EDTA, plus or minus 0.2% human serum albumin, pH 7.4) for 60 minutes at room temperature. The reactions are terminated by rapid filtration through Whatman GF/C glass fibre filter plates. The filter plates were pre-soaked in 0.33% polyethylenimine for 30 minutes at room temperature then washed in Wash Buffer (50 mM Hepes, 0.5 M NaCl pH 7.4) prior to harvesting. After harvesting, the filter plates are washed 3 times with 1 ml cold Wash Buffer then dried. Scintillant is then added to the plates and the radioactivity retained on the filters is determined on a Packard TopCount (Perkin Elmer). Specific binding is determined as total radioactive binding minus non-specific binding in the presence of 10 μM BW A868C. IC50s were determined using GraphPad prism analysis of drug titration curves.
For `COc1ccc(CC(=O)O)cc1-c1ccc(C(F)(F)F)cc1CN(C(=O)OCc1ccccc1)C1CC1` [Compound 1-36, {2′-[(Benzyloxycarbonyl-cyclopropyl-amino)-methyl]-6-methoxy-4′-trifluoromethyl-biphenyl-3-yl}-acetic acid], the IC50 lay in the range of 1000 to 30000 nM.

The assay is the same for the next values; noted with them: [3H]BWA868C binding, human platelet membranes; read-out: hDP1.
For `COc1ccc(CC(=O)O)cc1-c1ccc(C(F)(F)F)cc1CN(C)C(C)=O` [Compound 1-1, {2′-[(Acetyl-methyl-amino)-methyl]-6-methoxy-4′-trifluoromethyl-biphenyl-3-yl}-acetic acid], the IC50 lay within 1000 to 30000 nM.

`CCN(Cc1cc(C(F)(F)F)ccc1-c1cc(CC(=O)O)ccc1OC)C(C)=O` [Compound 1-2, {2′-[(Acetyl-ethyl-amino)-methyl]-6-methoxy-4′-trifluoromethyl-biphenyl-3-yl}-acetic acid]: the IC50 fell in the range of 1000 to 30000 nM.

Take `COc1ccc(CC(=O)O)cc1-c1ccc(C(F)(F)F)cc1CN(CC(F)(F)F)C(C)=O` [Compound 1-4, (2′-{[Acetyl-(2,2,2-trifluoro-ethyl)-amino]-methyl}-6-methoxy-4′-trifluoromethyl-biphenyl-3-yl)-acetic acid]: the IC50 is 1000 to 30000 nM.

Turning to `CCN(Cc1cc(C(F)(F)F)ccc1-c1cc(CC(=O)O)ccc1F)C(C)=O` [Compound 1-10, {2′-[(Acetyl-ethyl-amino)-methyl]-6-fluoro-4′-trifluoromethyl-biphenyl-3-yl}-acetic acid], the IC50 lay in the range of 1000 to 30000 nM.

For the compound `CC(=O)N(Cc1cc(C(F)(F)F)ccc1-c1cc(CC(=O)O)ccc1F)CC(F)(F)F` [Compound 1-11, (2′-{[Acetyl-(2,2,2-trifluoro-ethyl)-amino]-methyl}-6-fluoro-4′-trifluoromethyl-biphenyl-3-yl)-acetic acid], the IC50 fell in the range of 1000 to 30000 nM.

For `COc1ccc(CC(=O)O)cc1-c1ccc(C(F)(F)F)cc1CN(C(C)=O)C1CC1` [Compound 1-12, {2′-[(Acetyl-cyclopropyl-amino)-methyl]-6-methoxy-4′-trifluoromethyl-biphenyl-3-yl}-acetic acid], the IC50 was 1000 to 30000 nM.

On to `CCN(Cc1cc(C(F)(F)F)ccc1-c1cc(CC(=O)O)ccc1OC)C(=O)OC` [Compound 1-23, {2′-[(Ethyl-methoxycarbonyl-amino)-methyl]-6-methoxy-4′-trifluoromethyl-biphenyl-3-yl}-acetic acid], for which the IC50 was 1000 to 30000 nM.

Take `COc1ccc(CC(=O)O)cc1-c1ccc(C(F)(F)F)cc1CN(C)C(=O)OCc1ccccc1` [Compound 1-27, {2′-[(Benzyloxycarbonyl-methyl-amino)-methyl]-6-methoxy-4′-trifluoromethyl-biphenyl-3-yl}-acetic acid]: the IC50 is 1000 to 30000 nM.

As to `CCN(Cc1cc(C(F)(F)F)ccc1-c1cc(CC(=O)O)ccc1OC)C(=O)OCc1ccccc1` [Compound 1-28, {2′-[(Benzyloxycarbonyl-ethyl-amino)-methyl]-6-methoxy-4′-trifluoromethyl-biphenyl-3-yl}-acetic acid], the IC50 was in the range of 1000 to 30000 nM.

On to `CN(Cc1cc(C(F)(F)F)ccc1-c1cc(CC(=O)O)ccc1F)C(=O)OCc1ccccc1` [Compound 1-29, {2′-[(Benzyloxycarbonyl-methyl-amino)-methyl]-6-fluoro-4′-trifluoromethyl-biphenyl-3-yl}-acetic acid], for which the IC50 was in the range of 1000 to 30000 nM.

For `COc1ccc(CC(=O)O)cc1-c1ccc(C(F)(F)F)cc1CN(C(C)=O)C1CCC1` [Compound 1-30, {2′-[(Acetyl-cyclobutyl-amino)-methyl]-6-methoxy-4′-trifluoromethyl-biphenyl-3-yl}-acetic acid], the IC50 lay within 1000 to 30000 nM.

`COc1ccc(CC(=O)O)cc1-c1ccc(C(F)(F)F)cc1CN(C(C)=O)C1CCCC1` [Compound 1-31, {2′-[(Acetyl-cyclopentyl-amino)-methyl]-6-methoxy-4′-trifluoromethyl-biphenyl-3-yl}-acetic acid]: the IC50 lay in the range of 1000 to 30000 nM.

As to `CCN(Cc1cc(C(F)(F)F)ccc1-c1cc(CC(=O)O)ccc1OC)C(=O)C(F)(F)F` [Compound 1-32, (2′-{[Ethyl-(2,2,2-trifluoro-acetyl)-amino]-methyl}-6-methoxy-4′-trifluoromethyl-biphenyl-3-yl)-acetic acid], the IC50 was in the range of 1000 to 30000 nM.

In the case of `CCN(Cc1cc(C(F)(F)F)ccc1-c1cc(CC(=O)O)ccc1OC)C(=O)C1CC1` [Compound 1-33, {2′-[(Cyclopropanecarbonyl-ethyl-amino)-methyl]-6-methoxy-4′-trifluoromethyl-biphenyl-3-yl}-acetic acid], the IC50 lay in the range of 1000 to 30000 nM.

Take `COc1ccc(CC(=O)O)cc1-c1ccc(C(F)(F)F)cc1CN(C(=O)OCc1ccccc1)C1CCC1` [Compound 1-34, {2′-[(Benzyloxycarbonyl-cyclobutyl-amino)-methyl]-6-methoxy-4′-trifluoromethyl-biphenyl-3-yl}-acetic acid]: the IC50 was in the range of 1000 to 30000 nM.

`CCN(Cc1cc(C(F)(F)F)ccc1-c1cc(CC(=O)O)ccc1OC)C(=O)OCc1cc(Cl)cc(Cl)c1` [Compound 1-38, (2′-{[(3,5-Dichloro-benzyloxycarbonyl)-ethyl-amino]-methyl}-6-methoxy-4′-trifluoromethyl-biphenyl-3-yl)-acetic acid]: the IC50 is 1000 to 30000 nM.

As to `CCN(Cc1cc(C(F)(F)F)ccc1-c1cc(CC(=O)O)ccc1OC)C(=O)OCc1ccccc1Cl` [Compound 1-39, (2′-{[(2-Chloro-benzyloxycarbonyl)-ethyl-amino]-methyl}-6-methoxy-4′-trifluoromethyl-biphenyl-3-yl)-acetic acid], the IC50 lay in the range of 1000 to 30000 nM.

Consider `CCN(Cc1cc(C(F)(F)F)ccc1-c1cc(CC(=O)O)ccc1OC)C(=O)OCc1cc(F)cc(F)c1` [Compound 1-40, (2′-{[(3,5-Difluoro-benzyloxycarbonyl)-ethyl-amino]-methyl}-6-methoxy-4′-trifluoromethyl-biphenyl-3-yl)-acetic acid], for which the IC50 was in the range of 1000 to 30000 nM.

Turning to `CCN(Cc1cc(C(F)(F)F)ccc1-c1cc(CC(=O)O)ccc1OC)C(=O)OCc1ccc(F)cc1` [Compound 1-41, (2′-{[Ethyl-(4-fluoro-benzyloxycarbonyl)-amino]-methyl}-6-methoxy-4′-trifluoromethyl-biphenyl-3-yl)-acetic acid], the IC50 lay within 1000 to 30000 nM.

A further assay has as its target T2, human DP2 receptor (Homo sapiens, UniProt Q9Y5Y4).
T2 construct: expressed in transfected cells
T2 sequence (Q9Y5Y4 1-395): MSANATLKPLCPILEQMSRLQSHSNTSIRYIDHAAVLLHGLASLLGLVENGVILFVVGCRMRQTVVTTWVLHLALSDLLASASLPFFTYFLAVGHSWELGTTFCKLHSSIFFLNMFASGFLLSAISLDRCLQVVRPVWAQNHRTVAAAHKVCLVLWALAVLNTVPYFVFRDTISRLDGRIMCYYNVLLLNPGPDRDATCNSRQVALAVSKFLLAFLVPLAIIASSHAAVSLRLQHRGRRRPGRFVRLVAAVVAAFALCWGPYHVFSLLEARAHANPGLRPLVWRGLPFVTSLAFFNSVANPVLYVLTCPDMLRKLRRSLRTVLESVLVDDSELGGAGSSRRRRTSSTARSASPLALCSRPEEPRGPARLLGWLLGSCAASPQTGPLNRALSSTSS
Put plainly: DP2/CRTH2 radioligand binding assay ([3H]PGD2). The note with it: [3H]PGD2 binding, membranes of HEK293 cells expressing human DP2; read-out: hDP2. On the procedure:
The ability of a compound to bind to the human DP2 receptor is assessed via a radioligand binding assay using [^3H]PGD2. HEK293 cells stably expressing recombinant human DP2 are resuspended in 10 mM Hepes, 7.4 containing 1 mM DTT, lysed and centrifuged at 75,000×g to pellet the membranes. The membranes are resuspended in 10 mM Hepes, 7.4 containing 1 mM DTT and 10% glycerol to approximately 5 mg protein/ml. Membranes (2-10 μg protein/well) are incubated in 96-well plates with 1 nM [^3H]PGD2 and test compound in Assay Buffer (50 mM Hepes, 10 mM MnCl2, 1 mM EDTA, plus or minus 0.2% human serum albumin, pH 7.4) for 60 minutes at room temperature. The reactions are terminated by rapid filtration through Whatman GF/C glass fibre filter plates. The filter plates were pre-soaked in 0.33% polyethylenimine for 30 minutes at room temperature then washed in Wash Buffer (50 mM Hepes, 0.5 M NaCl pH 7.4) prior to harvesting. After harvesting, the filter plates are washed 3 times with 1 ml cold Wash Buffer then dried. Scintillant is then added to the plates and the radioactivity retained on the filters is determined on a Packard TopCount (Perkin Elmer). Specific binding is determined as total radioactive binding minus non-specific binding in the presence of 10 μM PGD2. IC50s were determined using GraphPad prism analysis of drug titration curves.
For the compound `CCN(Cc1cc(C(F)(F)F)ccc1-c1cc([C@H](C)C(=O)N2C(=O)O[C@@H](c3ccccc3)[C@H]2C)cc(C(F)(F)F)c1)C(=O)C1CC1` [Compound 2-16, Cyclopropanecarboxylic acid ethyl-{3′-[(S)-1-methyl-2((4R,5S)-4-methyl-2-oxo-5-phenyl-oxazolidin-3-yl)-2-oxo-ethyl]-4,5′-bis-trifluoromethyl-biphenyl-2-ylmethyl}-amide], the IC50 lay in the range of 1000 to 30000 nM.

Regarding `CCN(Cc1cc(C(F)(F)F)ccc1-c1cc(CC(=O)O[C@@H]2O[C@H](C(=O)O)[C@@H](O)[C@H](O)[C@H]2O)ccc1OC)C(=O)NCc1ccccc1` [Compound 2-17, (2S,3S,4S,5R,6S)-6-{2-[2′-(3-Benzyl-1-ethyl-ureidomethyl)-6-methoxy-4′-trifluoromethyl-biphenyl-3-yl]-acetoxy}-3,4,5-trihydroxy-tetrahydro-pyran-2-carboxylic acid], the IC50 fell in the range of 300 to 1000 nM.

For the origin of these results see patent US8067445B2, “N,N-disubstituted aminoalkylbiphenyl antagonists of prostaglandin D2 receptors” (Panmira Pharmaceuticals, LLC, priority 2008, dated 2011).
